The source of these data is patent US20240247048A1 (EMORY UNIVERSITY, priority 2021, published 2024).

For test [1], the system named is MT5, KPC-Luc, Panc02, BXPC3, Capan-02 PDAC cell lines. The experiment in a line: cell viability assay (MTT) of PDAC cell lines. The conditions noted are these: 0-5 uM, 72 hours; FIG. 13E, 24a. It counts as cell-based, mouse and human. Here is the method: (FIG. 24A) Percentage viability of murine (MT5, KPC.Luc, Panc02) and human (Capan02, BxPC3) PDAC cell lines cultured in the presence of different concentrations ranging from 0-5 μM of ANT008 for 72 hours is plotted. Confirmation of CRISPR-Cas9 KO of VIPR2 encoding VPAC2 receptor via (FIG. 24B) western blot; (FIG. 24C) RT-PCR using primers targeting exon 9-12 downstream of targeted site and (FIG. 24D) Sanger Sequencing showing the validation of in-del mutation in exon 2. In vitro MTT assay showing (FIG. 24E) Proliferation of WT and KO cells over 72 hours; (FIG. 24F) Percent viability of wild type (WT) and VPAC2 KO (KO) Panc02 cells treated with ANT008 and ANT308 at 3 μM for 72 hours. (FIG. 24G) Tumor growth curve of WT versus KO Panc02 cells in C57BL/6 mice following subcutaneous tumor implantation. Values represent median tumor volume±95% confidence interval. (FIG. 24H) Kaplan-Meier survival plots corresponding to results in FIG. 24G. Median survival time for WT is 21 days and 28 days for VPAC2 KO. Error bars represent mean and standard deviation. *p<0.05, **p<0.01.
Cell viability assay. […] Cell viability was assessed using cell proliferation kit I from Roche (Basel, Switzerland), following the manufacturer's instructions. […] This was followed by incubation with solubilization buffer overnight and reading the absorbance at 570 nm. […]

Test [2] relates to tumor infiltrating T cells in KPC-Luc tumors. The test can be described thus: analysis of tumor infiltrating T cells in subcutaneous KPC-Luc tumors (flow cytometry, Nanostring, TCR sequencing, tetramer). It counts as in vivo, mouse. As to the method: FIGS. 19A, 19B, 19C, 19D, 19E, 19F, 19G, 19H and 19I show increased T cell activation and reduced frequency of Tregs in KPC.Luc tumors treated with a combination of VIP-R antagonist and anti-PD-1. Subcutaneous KPC.Luc tumors in C57BL/6 mice treated with ANT008 and/or anti-PD-1 (n=5 per treatment group), were analyzed via flow cytometry 10 days after treatment for proportion of (FIG. 19A) CD4+ and (FIG. 19B) CD8+ T cells expressing Ki67, IFN gamma, IL-4, PD-1 and Tim-3. (FIG. 19C) Representative flow plots showing the gating strategy used to quantify CD25+FoxP3+ Tregs. (FIG. 19D) Percentage of Tregs in tumors of the different treatment groups (n=5 per treatment group). Volcano plot showing differential expression of genes in T cells from (FIG. 19E) ANT008+ isotype IgG (IgG) vs scrambled peptide (Scram)+ isotype IgG, (FIG. 19F) scrambled peptide+anti-PD-1 vs scrambled peptide+isotype IgG and (FIG. 19G) ANT008+anti-PD-1 vs scrambled peptide+isotype IgG (n=3 mice per treatment group). Horizontal black line represents false discovery rate (FDR)<0.1. […] (FIG. 19H) Heat map showing gene expression changes in genes associated with TCR activation and co-stimulation. (FIG. 19I) TCR activation and co-stimulation pathway score between the T cells in tumors of mice from the different treatment groups. Statistical differences in FIGS. 19A, 19B, 19D and 19I were calculated via ANOVA followed by Dunnett's post-test. Error bars show mean±SEM *p<0.05, **p<0.001, ***p<0.0001.
(FIG. 20A) Box and whiskers plot showing Shannon's Entropy in T cells of KPC.Luc tumors in each treatment group. (FIG. 20B) List showing TCR-0 amino acid sequences shared between samples of each treatment group and (FIG. 20C) the frequencies of the shared clones in each treatment group. Sequences are color coded to represent number of mice per group (n=4) that share the specific TCR-β clone. CD8+ in subcutaneous KPC.Luc tumors were stained with MuLV p15E-H2Kb tetramer after 10 days of treatment with ANT308 and/or anti-PD-1 (n=3 per treatment group) using the (FIG. 20D) gating strategy and (FIG. 20E) quantified. […] Statistical differences in a and e were calculated via ANOVA followed by Dunnett's post-test and in FIG. 20F and FIG. 20G were calculated using Log-rank test. […]
Increased T cell activation in tumors of mice treated with a combination of VIP-R antagonist and anti-PD-1. To investigate whether inhibiting VIP-R signaling promotes T cell activation in vivo, the study analyzed tumor infiltrating T cells in subcutaneous KPC-Luc tumors for differences in activation markers. […]
(In general: Flow cytometry measures light scatter and fluorescence of single cells or particles in a stream.)

Take KPRRPYTDNYTRLRKQMAVKKYLNLILN [ANT008]: the “viability and growth of PDAC cell lines in vitro” value in test [1] was “did not affect viability of PDAC cell lines in vitro, except a transient effect in MT5”. In test [2] (>4-fold change, FDR<0.1, FIG. 19e-19g), the “genes upregulated in TIL (Nanostring)” value is “no genes significantly upregulated”. Further, in test [2] (FIG. 19c, 19d), the “frequency of Tregs within the PDAC tumors” value is on record as “significantly decreased”. The “levels of PD-1+ Tim-3- T cells in CD4+ and CD8+ subsets” value in test [2] (monotherapy, 10 days after treatment, FIG. 19a, 19b) is reported as “increased”. Besides, the “number of clones shared by at least 2 samples among top 50 highest frequency TCR clones” value in test [2] (n=4 per group, FIG. 20b) was 6.
